How the values were obtained:
[1] = tested on: human neutrophils; experiment: Annexin V/PI flow cytometric assay of neutrophils’ viability; assay type: cell-based; conditions: for Higher 2-SC concentration that did not affect human neutrophils’ viability: annexin V/PI assay, 40 min incubation at 37 °C
Excerpt: (§1) Following the Declaration of Helsinki and the approval of patient-related procedures and protocols by the Ethics Committee of Centro Hospitalar do Porto, Portugal, venous blood was collected from healthy human blood donors, after informed consent. The blood was stored into K3EDTA vacuum tubes after antecubital venipuncture of the donors. In order to obtain the isolated neutrophils, the density gradient centrifugation method was applied, as previously reported, with modifications. In brief, in a 15 mL polypropylene tube, 3 mL of histopaque 1119 were added followed by 3 mL of histopaque 1077 and finally, 4.5 mL of the collected blood were slowly added. Each tube was centrifuged at 900× g at 20 °C for 30 min, with a medium acceleration and deceleration speed. Following centrifugation, the neutrophils’ portion was harvested, and PBS was added to double the volume. The neutrophils’ suspension was then centrifuged at 850× g at 4 °C for 5 min, using a maximum acceleration and deceleration speed. The supernatant was discarded, and the neutrophils’ pellet was resuspended in PBS and afterward milli-Q water was added to lyse the residual erythrocytes. The tube was gently homogenized and after a few minutes, 3% NaCl was added to restore isotony, and then centrifuged again at 850× g at 4 °C for 5 min, using a maximum acceleration and deceleration speed. The supernatant was discarded, and a neutrophils’ pellet was obtained. After isolation, the neutrophils’ pellet was resuspended in the incubation media, tris-glucose buffer (25 mM Trizma® base, 5.5 mM D-glucose, 140 mM NaCl, 1.26 mM CaCl2, 0.81 mM MgSO4, 5.37 mM KCl, pH = 7.4). Neutrophils’ suspension was kept on ice, under soft shaking, until use. The trypan blue exclusion method was used to determine cells’ yield and viability.
(§2) The effect of the studied 2-SC on neutrophils’ viability was assessed by flow cytometry, after simultaneous staining with FITC Annexin V and propidium iodide (PI) (Figure S1), as previously reported by our research group, with modifications. After isolation, neutrophils (1 × 10^6 cells/mL) were incubated with 2-SC (up to 100.00 μM) or DMSO for 40 min, at 37 °C, in a 48-well plate. At the end of incubation, the content of each well was transferred to conical microtubes and centrifuged at 400× g at 20 °C for 5 min. After discarding the supernatant, the neutrophils’ pellet was resuspended in PBS and centrifuged under the previous conditions. Once the supernatant was removed, the pellet was resuspended in 10× diluted binding buffer, and then PI and annexin V were added. This mixture was incubated in the dark at room temperature for 15 min, and finally, 10× diluted binding buffer was added. In a flow cytometer, the fluorescence signal, of at least 10,000 cells/sample, were collected in logarithmic mode and followed in channels 1 and 3. The green fluorescence corresponding to annexin V FITC was accompanied in channel 1 and plotted as a histogram of FL1 staining, whereas the fluorescence corresponding to PI was monitored in channel 3 and plotted in the same histogram but as FL3 staining. The collected data were analyzed with the BD Accuri™ C6 software. The data analysis was restricted to the neutrophils’ population. Thus, according to the light-scattering properties of neutrophils (in a forward versus side scatter plot), a polygon gate was drawn, where debris and other blood cells were excluded. The effect of 2-SC on neutrophils’ viability was expressed as a relative percentage of apoptotic and/or necrotic cells when compared to the control (without 2-SC).

[2] = as above; assay type: cell-based, human; conditions: human, isolated human neutrophils, pH 7.4, representative plot, Figure 4, read-out: Viable cells [annexin V (−)/PI (−)], lower left quadrant
Excerpt: as §1, §2

[3] = tested on: human neutrophils’ oxidative burst; experiment: Neutrophils’ oxidative burst, PMA stimulation, luminol chemiluminescence; assay type: cell-based; conditions: Homo sapiens, Neutrophil
Excerpt: as §1
The effect of 2-SC on the modulation of neutrophils’ oxidative burst was assessed after the stimulation of these cells with PMA by monitoring the oxidation of chemiluminescent probe, luminol, by the generated reactive species (Figure S2), according to a previously described methodology. Briefly, neutrophils (1 × 10^6 cells/mL) were pre-incubated with luminol (500.00 μM), and 2-SC (0.00–100.00 μM) or DMSO, at the final concentrations indicated. After this pre-incubation, at 37 °C for 5 min, PMA (160.00 nM) was added, and in turn, neutrophils’ stimulation was initiated. Kinetic readings were immediately initiated and followed for 40 min, at 37 °C, in a microplate reader. The arbitrary chemiluminescence value was taken at the peak of the curve, and the results were expressed as the inhibition percentage of luminol oxidation.
GraphPad Prism 6 software was used to plot the curves of percentage of inhibition versus concentrations of compound, from which the concentration that produces 50% of inhibition (IC50) was determined. GraphPad Prism 6 software was also used to perform all statistical analyses. […] In all cases, p-values < 0.05 were considered statistically significant. The results are expressed as mean ± standard error of the mean (SEM).

[4] = O2•−, cited from earlier work

IC50 ([3]; PMA 160.00 nM, luminol 500.00 μM, mean ± SEM, read-out: IC50, inhibition of human neutrophils’ oxidative burst)	SMILES	Effect on total neutrophils’ population percentage ([1]; 50.00 μM)	Induction of late apoptosis ([1]; 50.00 μM)	Higher 2-SC concentration that did not affect human neutrophils’ viability [1]	viability at 40 min, 25 µM ([2]; 25.00 μM)	viability at 40 min, 50 µM ([2]; 50.00 μM)	inhibition at 25 µM ([3]; 25.00 µM (highest tested concentration), read-out: Inhibitory activity (% ± SEM), neutrophils’ oxidative burst)	Scavenging of reactive species ([4]; H2O2, HOCl, 1O2, •NO, ONOO−)	Scavenging activity of reactive species ([4]; 1O2, •NO and ONOO−)
	O=c1cc(/C=C/c2ccccc2)oc2cc(O)cc(O)c12 [A4]	significantly affected the total neutrophils’ population percentage	induced late apoptosis	25.00 µM	88.4%	63.8%	< 30%		
	O=c1cc(/C=C/c2ccc(O)cc2)oc2cccc(O)c12 [B2]			6.25 µM				much less active or inactive	
1400 ± 200 nM	COc1ccc(/C=C/c2cc(=O)c3ccc(O)c(O)c3o2)cc1OC [C8]			6.25 µM					good scavenging activity

— PMC8953385, “2-Styrylchromones: Cytotoxicity and Modulation of Human Neutrophils’ Oxidative Burst” (Pharmaceuticals, 2022)
